Values quoted from earlier work, collected in patent US20120095087A1, “ENHANCED PRODUCTS BY SUSTAINABLE PROCESSES FOR MEDICINAL USE” (priority 2010, published 2012).

How the values were obtained:
[1] = tested on: cancer cell growth; details: low potency in non-cancer cells
[2] = target: CB2 receptors (Homo sapiens, UniProt P34972)
[3] = tested on: gene ID1; details: in vitro
[4] = target: T1, 5-HT1A receptor (Homo sapiens, UniProt P08908)
T1 sequence (P08908 1-422): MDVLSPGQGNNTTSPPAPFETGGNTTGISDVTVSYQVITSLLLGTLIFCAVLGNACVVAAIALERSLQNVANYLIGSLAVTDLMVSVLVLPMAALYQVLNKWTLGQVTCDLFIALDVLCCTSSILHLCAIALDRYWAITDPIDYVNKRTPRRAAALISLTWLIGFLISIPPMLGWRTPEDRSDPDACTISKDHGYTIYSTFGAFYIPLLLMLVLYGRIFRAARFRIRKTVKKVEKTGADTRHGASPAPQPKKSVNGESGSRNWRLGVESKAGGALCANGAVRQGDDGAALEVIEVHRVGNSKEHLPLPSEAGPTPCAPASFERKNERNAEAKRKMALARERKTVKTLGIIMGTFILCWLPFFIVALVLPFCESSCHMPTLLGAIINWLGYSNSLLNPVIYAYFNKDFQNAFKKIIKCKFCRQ

[5] = animal tests
[6] = target: GPR55 (Homo sapiens, UniProt Q9Y2T6); details: putative new cannabinoid receptor
Chain of GPR55 (Q9Y2T6 whole entry, species assumed): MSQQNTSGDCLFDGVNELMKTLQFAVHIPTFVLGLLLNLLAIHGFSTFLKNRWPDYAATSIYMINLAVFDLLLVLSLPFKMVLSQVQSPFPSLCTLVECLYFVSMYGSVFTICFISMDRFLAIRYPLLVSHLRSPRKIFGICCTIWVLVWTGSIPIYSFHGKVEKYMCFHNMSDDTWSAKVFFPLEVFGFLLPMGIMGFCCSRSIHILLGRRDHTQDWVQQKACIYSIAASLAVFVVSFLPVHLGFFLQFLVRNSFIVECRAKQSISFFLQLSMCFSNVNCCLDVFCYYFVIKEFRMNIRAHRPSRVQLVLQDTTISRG

Chain of CB2 receptors (P34972 whole entry): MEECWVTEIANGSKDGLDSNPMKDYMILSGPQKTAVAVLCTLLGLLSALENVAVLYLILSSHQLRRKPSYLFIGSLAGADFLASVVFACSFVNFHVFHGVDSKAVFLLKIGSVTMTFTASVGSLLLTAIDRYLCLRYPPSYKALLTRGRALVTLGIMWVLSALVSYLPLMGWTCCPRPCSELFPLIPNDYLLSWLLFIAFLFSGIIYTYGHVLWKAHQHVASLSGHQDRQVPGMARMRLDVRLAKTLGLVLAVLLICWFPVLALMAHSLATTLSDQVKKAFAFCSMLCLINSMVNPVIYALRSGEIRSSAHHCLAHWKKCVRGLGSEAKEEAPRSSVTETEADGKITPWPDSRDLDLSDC

Row | Compound | cancer cell growth [1] | affinity for CB2 receptors [2] | activity of the gene ID1 [3] | action at 5-HT1A receptor [4] | sedative effects [5] | action at GPR55 [6] | potency relative to THC
1 | C=C(C)[C@@H]1CCC(C)=C[C@H]1c1c(O)cc(CCCCC)cc1O [Cannabidiol, cannabidiol] | inhibit cancer cell growth | no affinity | downregulates | agonist | sedative effects | antagonist | –
2 | CCCCCCC(C)(C)c1cc(O)c2c(c1)OC(C)(C)[C@@H]1CC=C(CO)C[C@@H]21 [HU-210] | – | – | – | – | – | – | about 100 times
